Patent publication US4232013A, “16,17-Pyrazolino- and 16,17-isopyrazolino-1,4-pregnadiene derivatives” (Lark S.p.A., priority 1977, dated 1980)

How the values were obtained:
granuloma formation = experiment: cotton granuloma assay, topical anti-inflammatory activity; type: in vivo, rat (adult female albino, Sprague-Dawley); parameters: key: relative potency; comparison steroid = 1; conditions: 20-2-0.2 mcg/cotton pellet, 7 days; for Anti-inflammatory activity (*): (*) in comparison with Fluocinolone acetonide; for Anti-inflammatory activity (**): (**) in comparison with Dexamethasone 21-acetate
Protocol: (§1) The topical anti-inflammatory activity of the new compounds of this invention was determined using the cotton granuloma assay. This test was performed according to C. A. Winter and C. C. Porter J. Am. Pharm. Ass. Sci., Ed. 46, 515. 1957 using adult female albino rats (Sprague-Dawley) average body weight 150 grams. 8 animals per group.
(§2) The method consists in the subcutaneous implantation in the dorsal region of 2 sterile cotton pelletts. The pellets employed were 5 mm section cut from dental cotton rolls weighing about 45 mg each. The tested compound dissolved in ethyl alcohol, was absorbed on the pellets before implantation. Fluocinolone acetonide and Dexamethasone-21-acetate was used as comparison products and their activities were conventionally taken equal to 1 for each of the various parameters herein considered. Comparison substance and tested new compounds were absorbed on the pellets at the following scalar dosage per each pellet: 20-2-0.2 mcg/cotton pellet. For the controls the pellets were soakened in the pure solvent (ethyl alcohol) and then dried as usually.
After seven days the animals were sacrified. The pellets were removed and the exudate weights were recorded as a measure of the granuloma formation. The degree of granuloma inhibition reflects the anti-inflammatory activity of the tested compounds.
(§3) In the following Table 1. there are reported the achieved results with regard to the anti-inflammatory activity, the thymolitic activity, and the LD50 values: […]

[1] = thymolytic activity (topical administration); type: in vivo, rat (adult female albino, Sprague-Dawley)
Protocol: as §1, §2, §3

LD50 (acute toxicity) = conditions: in vivo, topical or ocular; Table 1, topical administration
From the text: as §3

[2] = tested on: vasoconstrictive activity, human volunteers; experiment: vasoconstrictive activity in human volunteers (McKenzie and Stoughton's test or Falconi and Rossi's Paper-Patch Test); type: in vivo; conditions: for vasoconstrictive activity (in words): human volunteers
From the text: Some of the esters have been tested in human volunteers for their vasoconstrictive activity using the McKenzie and Stoughton's test (1) or the Falconi and Rossi's Paper-Patch Test (2) in comparison with a known anti-inflammatory corticosteroid, namely fluocinolone acetonide.
In the first experiment 2 dilutions of 4 esters have been tested on volunteers and 10 dilutions have been applied for each subject.
1. Mc Kenzie, A.W., Stoughton, R.B.: Method for comparing percutaneous
absorption of Steroids. Arch. Derm. 86, 608, 1962.
vasoconstrictive activity of Corticosteroids. Arch. Derm. 105, 856, 1972.

[3] = Table 2, first trial, dilution 10^4
[4] = Table 2, first trial, dilution 10^5
[5] = topical, relative, comparison product conventionally equal to 1 (Dexamethasone 21-acetate = 1)
[6] = Table 2a, second trial, dilution 10^3
[7] = Table 2a, second trial, dilution 10^4
[8] = Table 2a, second trial, dilution 10^5
[9] = Table 2a, second trial, dilution 10^6

SMILES	Anti-inflammatory activity (*) (granuloma formation)	Anti-inflammatory activity (**) (granuloma formation)	LD50 (LD50 (acute toxicity)) [mg/kg]	% Positive [2, 3] [%]	Results (Positive/No. of subjects) [2, 3]	% Positive [2, 4] [%]	Results (Positive/No. of subjects) [2, 4]	Thymolytic activity [1, 5]	also measured
CC1(C)O[C@@H]2C[C@H]3[C@@H]4C[C@H](F)C5=CC(=O)C=C[C@]5(C)[C@@]4(F)[C@@H](O)C[C@]3(C)[C@]2(C(=O)CO)O1 [Fluocinolone acetonide, reference compound]	2	2	166	100	5/5	60	3/5		Thymolytic activity ([1]; rat, in vivo): 0.83
CC(=O)OCC(=O)[C@@]12NN=C[C@@H]1C[C@H]1[C@@H]3C[C@H](F)C4=CC(=O)C=C[C@]4(C)[C@@]3(F)[C@@H](O)C[C@@]12C [16,17 M Dif-AC, 16α,17α-Isopyrazolino-1,4-pregnadiene-6α,9α-difluoro-11β,21-diol-3,20-dione 21-acetate]	> 10	> 20	1120					0.26	
CC(=O)OCC(=O)[C@@]12N=NC[C@@H]1C[C@H]1[C@@H]3CCC4=CC(=O)C=C[C@]4(C)[C@@]3(F)[C@@H](O)C[C@@]12C [Pyr-F-Ac, 16α,17α-Pyrazolino-1,4-pregnadiene-9α-fluoro-11β,21-diol-3,20-dione-21-acetate]	≥ 10	≥ 20	721					0.14	
CCCCC(=O)OCC(=O)[C@@]12NN=C[C@@H]1C[C@H]1[C@@H]3C[C@H](F)C4=CC(=O)C=C[C@]4(C)[C@@]3(F)[C@@H](O)C[C@@]12C [16-17-M-Dif-Va, 16α,17α-Isopyrazolino-1,4-pregnadiene-6α,9α-difluoro-11β,21-diol-3,20-dione-21-valerate]				100	5/5	40	2/5		% Positive [2, 6]: 100%; Results (Positive/No. of subjects) [2, 6]: 5/5; % Positive [2, 7]: 80%; Results (Positive/No. of subjects) [2, 7]: 4/5; % Positive [2, 8]: 80%; Results (Positive/No. of subjects) [2, 8]: 4/5; % Positive [2, 9]: 60%; Results (Positive/No. of subjects) [2, 9]: 3/5; vasoconstrictive activity (in words) [2]: showed the best activity in the first trial; vasoconstrictive activity (in words) ([2]; listed as 16-17-Dif-Va): showed the same potency as fluocinolone acetonide even at the lower concentrations employed in the trials
CC(=O)OCC(=O)[C@@]12N=NC[C@@H]1C[C@H]1[C@@H]3C[C@H](F)C4=CC(=O)C=C[C@]4(C)[C@@]3(F)[C@@H](O)C[C@@]12C [Pyr Dif-AC, 16α,17α-Pyrazolino-1,4-pregnadiene-6α,9α-difluoro-11β,21-diol-3,20-dione 21-acetate]	> 10	> 20	439					0.52	
CC(=O)OCC(=O)[C@@]12NN=C[C@@H]1C[C@H]1[C@@H]3CCC4=CC(=O)C=C[C@]4(C)[C@@]3(F)[C@@H](O)C[C@@]12C [16-17 MF-AC, 16α,17α-Isopyrazolino-1,4-pregnadiene-9α-fluoro-11β,21-diol-3,20-dione-21-acetate]	> 10	> 20	> 2000					0.02	
CCCC(=O)OCC(=O)[C@@]12NN=C[C@@H]1C[C@H]1[C@@H]3C[C@H](F)C4=CC(=O)C=C[C@]4(C)[C@@]3(F)[C@@H](O)C[C@@]12C [Example 16-17-Dif-Bu, 16α,17α-Isopyrazolino-1,4-pregnadiene-6α,9α-difluoro-11β,21-diol-3,20-dione-21-butyrate]				60	3/5	20	1/5		
CCCCC(=O)OCC(=O)[C@@]12NN=C[C@@H]1C[C@H]1[C@@H]3CCC4=CC(=O)C=C[C@]4(C)[C@@]3(F)[C@@H](O)C[C@@]12C [Example 16-17-M-F-Va, 16α,17α-Isopyrazolino-1,4-pregnadiene-9α-fluoro-11β,21-diol-3,20-dione-21-valerate]				100	5/5	40	1/5		
CC(C)(C)C(=O)OCC(=O)[C@@]12NN=C[C@@H]1C[C@H]1[C@@H]3C[C@H](F)C4=CC(=O)C=C[C@]4(C)[C@@]3(F)[C@@H](O)C[C@@]12C [16-17-M-Dif-Piv, 16α,17α-Isopyrazolino-1,4-pregnadiene-6α,9α-difluoro-11β,21-diol-3,20-dione-21-pivalate]				20	1/5	0	0/5		
CC1(C)O[C@@H]2C[C@H]3[C@@H]4CCC5=CC(=O)C=C[C@]5(C)[C@@]4(F)[C@@H](O)C[C@]3(C)[C@]2(C(=O)CO)O1 [Triamcinolone acetonide, reference compound]									% Positive [2, 6]: 100%; Results (Positive/No. of subjects) [2, 6]: 5/5; % Positive [2, 7]: 100%; Results (Positive/No. of subjects) [2, 7]: 5/5; % Positive [2, 8]: 60%; Results (Positive/No. of subjects) [2, 8]: 3/5; % Positive [2, 9]: 40%; Results (Positive/No. of subjects) [2, 9]: 2/5
CC(=O)OCC(=O)[C@@]1(O)[C@H](C)C[C@H]2[C@@H]3CCC4=CC(=O)C=C[C@]4(C)[C@@]3(F)[C@@H](O)C[C@@]21C [Dexamethasone 21-acetate, reference compound]	1	1	259						Thymolytic activity ([1]; rat, in vivo): 1
